Data taken from patent publication US11478467B2 (priority 2017, dated 2022).

Legend:
CYP2D6 [1] = target: T1, CYP2D6 (Homo sapiens (Human), UniProt P10635); settings: cited from earlier work
5-HT2A receptors [2] = target: T2, 5-HT2A receptors (Homo sapiens (Human), UniProt P28223); settings: compared with ritanserin; cited from earlier work
[3] = Blood glucose levels and oral glucose tolerance in rats; assay type: in vivo, rat; settings: dextromethorphan administered in combination with sarpogrelate
Method: Test substances were administered to male Wistar (Han) rats (180-280 g at the beginning of the experiments; Janvier Labs) housed in groups under free access to food and water. After overnight food deprivation, the tip of the tail was cut, each rat was weighed, housed individually and left without stress in a quiet room. Approximately 1 hour later, baseline blood glucose was measured from a drop of blood collected from the tail tip, using a commercially available glucose-meter (OneTouch®, Lifescan) and then rats received intraperitoneal injection of sarpogrelate and/or dextromethorphan and 30 min later blood glucose was measured again and rats immediately challenged with glucose at 2 g/kg by oral gavage. Then, blood glucose was measured at 6 time-points until 180 minutes post-glucose challenge.

[4] = tested on: hyperactivity in rats after olfactory bulbectomy; assay: Motor hyperactivity induced by olfactory bulbectomy in rats; assay type: in vivo, rat
Method: In a dedicated set of studies, adult male Sprague-Dawley rats (Charles River, Germany) were subjected to bilateral olfactory bulbectomy performed under ketamine/xylasine anesthesia. The animals were allowed to recover for 14 days following surgery while being handled daily to eliminate any aggressiveness that would otherwise arise. Sham-operated animals were treated in the same way but the olfactory bulbs were left intact. Drugs administration and locomotor activity testing were performed 4 times for each rat with 72 hours break between consecutive test sessions. Prior to each test session, animals were first treated with dextromethorphan (0, 15, 30 or 60 mg/kg. per os) followed 15 min later by sarpogrelate (1, 3 and 10 mg/kg, intraperitoneal) and another 15 min later were placed into Opto-Varimex cages for locomotor activity recording over 30 min. Hyperactivity in rats after olfactory bulbectomy is observed mostly during the early portion of the test sessions. […] Post hoc pairwise comparisons (Sidak's multiple comparisons test) confirmed that significant differences between bulbectomized and sham-operated were observed only in rats that were pretreated prior to the test with vehicle instead of sarpogrelate.

DOI-induced head shakes = DOI-induced head shakes in rats; assay type: in vivo, rat; settings: 0.3, 1 and 3 mg/kg 30 min prior to DOI 3 mg/kg; Sprague-Dawley rats
[5] = Pharmacokinetic study of sarpogrelate hydrochloride i.v. in rats; assay type: in vivo, rat; settings: rat, in vivo; 2 mg/kg intravenous bolus, male Wistar rats, plasma; read-out: Apparent terminal elimination half-life (converted)
Method: Pharmacokinetic study was performed in male Wistar rats equipped with the jugular vein cannulas. Sarpogrelate hydrochloride was formulated in Pharmasolv: PBS buffer (5:95) mixture and administered at the dose of 2 mg/kg intravenously. Blood samples were collected from the jugular vein using heparin as anticoagulant at the scheduled time-points: 5 min, 15 min, 30 min, 1 h, 1.5 h, 2 h, 4 h, and 6 h. An LC-MS/MS bioanalytical method was used for the simultaneous quantification of sarpogrelate and M1 in plasma samples. […] Formation of M1 metabolite of sarpogrelate was rapid as the highest M1 concentrations were measured at the first sampling time points.

[6] = tested on: PCP-induced hyperactivity; assay: Phencyclidine-induced hyperactivity in rats (sarpogrelate and dextromethorphan); assay type: in vivo, rat
2D6 = 2D6 (Homo sapiens (Human), UniProt P10635); settings: in vivo; cited from earlier work
2D6, sequence (P10635 whole entry): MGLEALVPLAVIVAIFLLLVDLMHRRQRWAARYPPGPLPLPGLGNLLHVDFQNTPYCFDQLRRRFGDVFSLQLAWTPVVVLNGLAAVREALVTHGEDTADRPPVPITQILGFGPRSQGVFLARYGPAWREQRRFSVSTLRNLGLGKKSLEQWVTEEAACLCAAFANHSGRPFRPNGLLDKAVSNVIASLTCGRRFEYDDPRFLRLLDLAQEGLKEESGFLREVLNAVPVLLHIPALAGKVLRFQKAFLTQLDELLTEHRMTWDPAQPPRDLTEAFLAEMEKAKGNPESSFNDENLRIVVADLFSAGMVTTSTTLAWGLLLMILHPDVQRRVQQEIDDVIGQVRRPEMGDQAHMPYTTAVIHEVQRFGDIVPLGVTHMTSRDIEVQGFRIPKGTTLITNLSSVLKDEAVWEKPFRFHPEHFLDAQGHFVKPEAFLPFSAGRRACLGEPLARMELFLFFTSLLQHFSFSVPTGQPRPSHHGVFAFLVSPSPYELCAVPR

5-HT2A receptors [7] = target: T2, 5-HT2A receptors; assay: 5-HT2A receptor antagonist radioligand binding ([3H]ketanserin)
Method: HEK-293 cells expressing human recombinant 5HT2A receptor were used in the antagonist radioligand binding studies. […] The inhibition constants (Ki) were calculated using the Cheng Prusoff equation. Both sarpogrelate enantiomers were potent inhibitors of [3H]ketanserin binding (Table 1). M1 enantiomers also potently bind to 5HT2A receptors with the Ki values that are approximately one order of magnitude higher than those of sarpogrelate enantiomers (Table 1). There are no meaningful differences between enantiomers in terms of 5-HT2A receptor binding for sarpogrelate or its main metabolite.
5HT2a ASSAY: Evaluation of the affinity of compounds for the human 5-HT2A receptor in transfected HEK-293 cells determined in a radioligand binding assay. Cell membrane homogenates (30-50 μg protein) were incubated 15 min at 37° C. with 0.5 nM [3H]ketanserin in the absence or presence of the test compound in a buffer containing 50 mM Tris-HCl (pH 7.4). Nonspecific binding was determined in the presence of 1 μM ketanserin. Following incubation, the samples were filtered rapidly under vacuum through glass fiber filters presoaked with 0.3% PEI and rinsed several times with ice-cold 50 mM Tris-HCl using a 96-sample cell harvester. The filters were dried then counted for radioactivity in a scintillation counter using a scintillation cocktail (WO2005013952A1, EP1500391A1[ab1], incorporated in its entirety by reference).

CYP2D6 [8] = target: T1, CYP2D6; assay: Dextromethorphan O-demethylase activity in human liver microsomes; assay type: biochemical
Method: Dextromethorphan O-demethylase activity was determined in human liver microsomes. […] The incubation mixtures contained pooled human liver microsomes (final concentrations: 0.25 mg/ml), dextromethorphan, and a NADPH-generating system (1.3 mM NADP+, 3.3 mM glucose 6-phosphate, 3.3 mM MgCl2, and 0.4 U/ml glucose-6-phosphate dehydrogenase). […] All incubations were performed in triplicate, and mean values were used for analysis. […] Both sarpogrelate enantiomers inhibited CYP2D6-mediated dextromethorphan O-demethylation (Table 4).

[9] = tested on: MK-801-induced hyperactivity; settings: 0.1 and 0.3 mg/kg s.c.; MK-801 0.3 mg/kg i.p.; mice; cited from earlier work
[10] = tested on: Parkinson's disease psychosis; settings: cited from earlier work
CYP2D6 [11] = target: T1, CYP2D6; settings: microsomes
Method: Dextromethorphan O-demethylase activity is determined in human liver microsomes. […] The incubation mixtures contain pooled human liver microsomes, dextromethorphan, and a NADPH-generating system. After incubation and centrifugation, the supernatant is diluted up to 100-fold with acetonitrile and then injected into the LC-MS/MS system. All incubations are performed in triplicate, and mean values are used for analysis. The IC50 values (concentration causing a half-maximal inhibition of control specific binding) and Hill coefficients (nH) are determined using methods such as non-linear regression analysis of the competition curves generated with mean replicate values using Hill equation curve fitting.

[12] = rat, in vivo, cited from earlier work
[13] = tested on: immobility induced by tail suspension; assay: Tail suspension test in mice; assay type: in vivo, mouse; settings: ritanserin with effective dose of memantine 10 mg/kg
Method: Tail suspension is one of the classical tests used to study antidepressant drugs and was also applied to evaluate antidepressant-like effects of NMDA receptor channel blockers (Kos T et al., Effect of 5-HT3 receptor antagonist MDL 72222 on behaviors induced by ketamine in rats and mice. European Neuropsychopharmacology (2006) 16:297-310). Mice were transferred from the housing room to the testing area in their home cages and allowed to adapt to the new environment for at least 1 h before drug treatment. Immobility was induced by tail suspension whereby mice were attached individually on a paper adhesive tape, 65 cm above the table top. The tape was placed approximately 1 cm from the tip of the tail. Animals were suspended for 6 min and the duration of immobility was recorded. Mice were considered immobile only when they were completely motionless. […]

5-HT2A/5-HT2C receptors = settings: in vivo; cited from earlier work
[14] = dose-range that covers therapeutically relevant exposures; cited from earlier work
dopamine D2 receptors = dopamine D2 receptors (Homo sapiens (Human), UniProt P14416); settings: cited from earlier work
dopamine D2 receptors, sequence (P14416 whole entry): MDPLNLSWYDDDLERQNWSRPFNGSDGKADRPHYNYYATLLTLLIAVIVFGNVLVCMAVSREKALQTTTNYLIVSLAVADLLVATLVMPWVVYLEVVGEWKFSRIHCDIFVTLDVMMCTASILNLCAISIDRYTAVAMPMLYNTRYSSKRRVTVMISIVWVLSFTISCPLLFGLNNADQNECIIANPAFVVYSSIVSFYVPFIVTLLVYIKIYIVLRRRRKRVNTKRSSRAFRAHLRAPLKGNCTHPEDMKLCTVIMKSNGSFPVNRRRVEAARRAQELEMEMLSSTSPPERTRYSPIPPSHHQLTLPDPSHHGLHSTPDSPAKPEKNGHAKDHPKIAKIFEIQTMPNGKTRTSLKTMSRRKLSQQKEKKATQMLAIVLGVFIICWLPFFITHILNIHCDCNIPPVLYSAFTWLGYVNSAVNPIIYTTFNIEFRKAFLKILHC

T1 sequence (P10635 whole entry): as the sequence (P10635 whole entry) above
T2 sequence (P28223 whole entry): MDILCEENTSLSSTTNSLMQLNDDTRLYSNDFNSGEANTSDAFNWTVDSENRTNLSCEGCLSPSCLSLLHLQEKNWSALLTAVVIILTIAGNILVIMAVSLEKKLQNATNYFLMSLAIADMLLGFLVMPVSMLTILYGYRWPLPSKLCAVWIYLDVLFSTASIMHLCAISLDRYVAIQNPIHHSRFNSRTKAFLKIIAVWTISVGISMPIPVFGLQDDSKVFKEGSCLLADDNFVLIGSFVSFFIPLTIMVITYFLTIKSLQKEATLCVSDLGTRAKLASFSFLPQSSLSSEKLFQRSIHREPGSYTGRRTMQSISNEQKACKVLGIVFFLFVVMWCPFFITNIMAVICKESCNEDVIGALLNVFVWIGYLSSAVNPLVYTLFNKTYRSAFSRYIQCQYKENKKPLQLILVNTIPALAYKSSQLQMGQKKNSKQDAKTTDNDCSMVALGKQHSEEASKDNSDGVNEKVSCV

For COc1cccc(CCc2ccccc2OCC(CN(C)C)OC(=O)CCC(=O)O)c1 (racemic) [Compound 50, 4-((1-(dimethylamino)-3-(2-(3-methoxyphenethyl)phenoxy)propan-2-yl)oxy)-4-oxobutanoic acid], the “inhibition type (Dixon plots)” value (CYP2D6 [1]) is listed as “fit well to all competitive inhibition types”, the “affinity for 5-HT2A receptors” value (5-HT2A receptors [2]) is listed as “the same affinity as ritanserin” and the “effect of dextromethorphan on blood glucose level” value [3] is listed as “reversed”. The “activity of sham-operated rats” value ([4]; doses with anti-hyperactivity effects) was “do not affect activity of sham-operated rats”, the “time in ambulations of bulbectomized rats” value ([4]; sarpogrelate 3 or 10 mg/kg i.p., first 15 min of the test) was “spent less time in ambulations” and the “frequency of DOI-induced head shakes” value (DOI-induced head shakes) was “reduced”. The half-life [5] was 1.21 ± 0.159 h, the “ANOVA interaction between dose of sarpogrelate and dose of dextromethorphan” value ([6]; PCP 5 mg/kg s.c., 60-120 min, listed as sarpogrelate racemate) was “significant interaction” and the “activity in PCP-treated rats” value ([6]; given in the absence of dextromethorphan) was “neither sarpogrelate racemate nor sarpogrelate enantiomers reduced activity”. For the same compound, the “motor hyperactivity in PCP-treated rats” value ([6]; in the presence of dextromethorphan, racemate 3 mg/kg, (−) sarpogrelate 1 or 3 mg/kg i.p., PCP 5 mg/kg s.c., 60-120 min) was “inhibited motor hyperactivity in PCP-treated rats”, the “classification as 2D6 inhibitor” value (2D6) was “weak 2D6 inhibitor” and the “increase in the substrate AUC” value (2D6) was “less than 2 fold”. For the same compound, the Ki (5-HT2A receptors [7]; Ki calculated using the Cheng Prusoff equation) was 5.01 nM, the IC50 (5-HT2A receptors [7]; inhibition of [3H]ketanserin binding, HEK-293 cells expressing human recombinant 5HT2A receptor) was 9.6 nM and the IC50 (CYP2D6 [8]) was 1200 nM.

For CC(C)COc1ccc(CNC(=O)N(Cc2ccc(F)cc2)C2CCN(C)CC2)cc1 [ACP-103, N-(4-fluorophenylmethyl)-N-(1-methylpiperidin-4-yl)-N′-(4-(2-methylpropyloxy)phenylmethyl) carbamide (2R,3R)-dihydroxybutanedioate (2:1)], the MK-801-induced hyperactivity [9] is listed as “significantly attenuated MK-801-induced hyperactivity”, the “night-time sleep and daytime wakefulness” value ([10]; compared with placebo) is listed as “improvements on night-time sleep and daytime wakefulness” and the “psychotic symptoms (hallucinations and delusions)” value ([10]; patients with moderate to severe Parkinson's disease) is listed as “significantly reduced psychotic symptoms”.

In the case of CN(C)CCO[C@]1(c2ccccc2)C[C@H]2CC[C@]1(C)C2(C)C [Compound 829, N,N-dimethyl-2-[[(1R,3S,4R)-4,7,7-trimethyl-3-phenyl-3-bicyclo[2.2.1]heptanyl]oxy]ethanamine], the “CYP2D6-mediated dextromethorphan O-demethylation” value (CYP2D6 [11]) is given as “observed to inhibit”, the “t(max)” value ([12]; po) is given as 1.0 h and the “AUC (0.96) for H-3 relative to C-14 (times higher)” value [12] is given as 10-15 times. The “concentrations in the hypophysis relative to plasma and brain tissues” value [12] was “at least two times higher”, the “entry into brain tissues” value [12] was “intact molecules entered brain tissues from the circulation” and the “ratio of AUC of H-3-labelled compound over C-14” value [12] was 50-60. The “time of peak characteristic of enterohepatic cycle” value [12] was 12 h and the “time of peak concentrations after the final treatment” value [12] was 0.5 h.

In the case of Cc1nc2sccn2c(=O)c1CCN1CCC(=C(c2ccc(F)cc2)c2ccc(F)cc2)CC1 [ritanserin], the “antidepressant-like effects of memantine (immobility time)” value [13] is reported as “reverse antidepressant-like effects of an effective dose of memantine”.

In the case of “N,N-dimethyl-2-[[(1R,3S,4R)-4,7,7-trimethyl-3-phenyl-3-bicyclo[2.2.1] heptanyl] oxy]ethanamine [Compound 829]”, the “down-regulation of 5-HT2A/5-HT2C receptors” value (5-HT2A/5-HT2C receptors) is given as “does not induce down-regulation of these receptors”, the prolactin [14] is given as “not found to elevate prolactin” and the “selectivity against dopamine D2 receptors” value (dopamine D2 receptors) is given as “at least 10 fold”.
